Test results reported in patent US11518742B2 (priority 2020, dated 2022).
Read-outs that look alike come from different tables or passages of the source.

Key:
[1] = Summary of clinical observations in applicant-sponsored dog studies; format: in vivo; settings: beagle, in vivo, other: intranasal instillation; Dog; HED 50 mg; read-out: NOAEL determined in the 14-day toxicology studies
From the text: (§1) Based on preliminary data from another ongoing study in dogs, it has been observed that the site of blood sampling in dogs may impact the measured plasma exposure. Samples from the jugular vein may result in higher apparent exposure levels than samples from the cephalic vein, which might be due to the local transmucosal route of administration (also reported in the scientific literature (Illum, 2003; Sohlberg, 2013)). Therefore, dose escalation criteria for the Phase 1 Single Ascending Dose study are based on assessment of clinical criteria, safety factors and exposure. A maximum dose of 14 mg has been designated.

Dog = test: as above; format: in vivo; settings: Dog 1.0 mg/kg (= 33 mg HED); preliminary data, ongoing study
From the text: as §1

[2] = Toxicokinetics, 14-day intranasal study in dogs (Study 62959); format: in vivo; settings: dog, plasma, inhaled or intranasal; for AUC(0-inf): read-out: AUCINF_obs; for AUC(0-t): read-out: AUC0-Tlast
Description: (§2) Assessments of mortality, clinical signs, olfactory reflex, body weights, food consumption, ophthalmology, and electrocardiograms were performed. In addition, clinical pathology assessments (hematology, coagulation, clinical chemistry and urinalysis) were evaluated once pretreatment and at termination. Blood samples were collected from the jugular vein of all animals on Days 1 and 14, at up to 8 time points relative to treatment, for analysis of test item concentration in plasma and the subsequent calculation of toxicokinetic parameters. Following dosing, the Main animals were euthanized and subjected to a complete necropsy examination on Day 15. […] All Main and Recovery study animals underwent complete necropsy examinations, selected tissues/organs were retained, and microscopic evaluations of a standard set of tissues were performed.
For toxicokinetics, a series of 8 blood samples were collected from the jugular vein from all treated animals on each of Days 1 and 14 of the treatment period at 2, 5, 10, 15, 30, and 60 minutes as well as 3 and 8 hours after treatment.

dogs = test: Maximum tolerated dose followed by 7-day repeat-dose toxicology in dogs (Study 62958); format: in vivo, dog
Description: (§3) In support of these objectives, the study consisted of 2 individual phases.
(§4) The test item was administered once by intranasal instillation to one male and female dog for up to 5 dose levels until the highest tolerable dose (MTD) was determined as described in Table 11.
(§5) During Phase 2, assessments of mortality, clinical signs, body weights and food consumption were performed. […] Following the last dosing, all animals were euthanized and subjected to a necropsy examination on Day 8. The necropsy consisted of an external examination; including reference to all clinically-recorded lesions, as well as a detailed internal examination. Study plan specific tissues/organs were collected and preserved following necropsy but were not further examined microscopically.

[3] = as above; format: in vivo, dog; settings: both sexes, dog, in vivo, inhaled or intranasal; intranasal instillation
Description: as §3, §4, §5

male Sprague-Dawley rats = test: Functional Observational Battery (FOB), single intranasal administration (ITR study 15951); format: in vivo, rat
Description: The test and control/vehicle items were administered by single dose intranasal administration to both nostrils, as shown in Table 7.
Parameters monitored included mortality and clinical signs. General behavioral changes were assessed using FOB at 6 timepoints: before dosing, and at 15 minutes, 1, 2, 4, and 24 hours postdosing. On each occasion, the FOB was performed at 4 stages: when the animals were in their home cage, while handling the animals, when the animals were freely moving in an open-field, and when they received diverse stimuli for reactivity evaluation. The body temperature and neuromuscular strength were also measured on each of the occasions detailed above.

[4] = 14-day repeat-dose intranasal toxicity study with 14-day recovery in dogs (Study 62959); format: in vivo, dog; settings: both sexes, Beagle, dog, in vivo, inhaled or intranasal; 14 consecutive days intranasal, 14-day recovery
Description: as §2

Beagle dogs = test: as above; format: in vivo, dog
Description: as §2

[5] = tested on: Escherichia coli tester strain WP2uvrA; test: Bacterial Reverse Mutation Test (Ames test), Escherichia coli
[6] = female, Beagle, 0.8 mg/kg/day, Day 1, Female
[7] = female, Beagle, 0.8 mg/kg/day, Day 14, Female
[8] = female, beagle, 0.4 mg/kg/day, Day 1, Female
[9] = female, beagle, 0.4 mg/kg/day, Day 14, Female
[10] = male, Beagle, 0.8 mg/kg/day, Day 1, Male
[11] = male, Beagle, 0.8 mg/kg/day, Day 14, Male
[12] = male, beagle, 0.4 mg/kg/day, Day 1, Male
[13] = male, beagle, 0.4 mg/kg/day, Day 14, Male

COc1ccc2[nH]cc(CCN(C)C)c2c1 [BPL-5MEO, 5-methoxy-N,N-dimethyltryptamine]
NOAEL at 14 days [1]: 1.5 mg/kg | Clinical observations (Dog): Slighttremor | AUC ([2]; Beagle, dogs, 1.5 mg/kg/day, combined for both sexes, read-out: AUCINT_obs at the NOAEL): 220 ng·h/mL | Cmax [2, 6]: 328 ng/mL | AUC(0-inf) [2, 6]: 265 ng·h/mL | half-life ([2]; female, Beagle, 0.8 mg/kg/day, Day 1, Female, read-out: t1/2 (converted)): 43.8 min | Cmax [2, 7]: 244 ng/mL | AUC(0-t) [2, 7]: 248 ng·h/mL | half-life ([2]; female, Beagle, 0.8 mg/kg/day, Day 14, Female, read-out: t1/2 (converted)): 95.4 min | Cmax [2, 8]: 242 ng/mL | AUC(0-t) [2, 8]: 104 ng·h/mL | AUC(0-inf) [2, 8]: 106 ng·h/mL | half-life ([2]; female, beagle, 0.4 mg/kg/day, Day 1, Female, read-out: t1/2 (converted)): 18.7 min | Cmax [2, 9]: 196 ng/mL | AUC(0-t) [2, 9]: 86.4 ng·h/mL | AUC(0-inf) [2, 9]: 95.9 ng·h/mL | half-life ([2]; female, beagle, 0.4 mg/kg/day, Day 14, Female, read-out: t1/2 (converted)): 42.4 min | Tmax ([2]; female, beagle, […], 2.5 & […], Day 1, Female): 6.66 min | half-life ([2]; female, beagle, […], 2.5 & […], Day 1, Female, read-out: t1/2 (converted)): 50.9 min | Cmax [2, 10]: 300 ng/mL | Tmax [2, 10]: 6.66 min | AUC(0-t) [2, 10]: 152 ng·h/mL | AUC(0-inf) [2, 10]: 160 ng·h/mL | half-life ([2]; male, Beagle, 0.8 mg/kg/day, Day 1, Male, read-out: t1/2 (converted)): 35.7 min | Cmax [2, 11]: 411 ng/mL | Tmax [2, 11]: 6.66 min | AUC(0-t) [2, 11]: 298 ng·h/mL | AUC(0-inf) [2, 11]: 322 ng·h/mL | half-life ([2]; male, Beagle, 0.8 mg/kg/day, Day 14, Male, read-out: t1/2 (converted)): 79.2 min | Cmax [2, 12]: 343 ng/mL | AUC(0-t) [2, 12]: 77.9 ng·h/mL | AUC(0-inf) [2, 12]: 80.9 ng·h/mL | half-life ([2]; male, beagle, 0.4 mg/kg/day, Day 1, Male, read-out: t1/2 (converted)): 34.3 min | Cmax [2, 13]: 285 ng/mL | Tmax [2, 13]: 6.66 min | AUC(0-t) [2, 13]: 70.6 ng·h/mL | AUC(0-inf) [2, 13]: 77.7 ng·h/mL | half-life ([2]; male, beagle, 0.4 mg/kg/day, Day 14, Male, read-out: t1/2 (converted)): 25.7 min | Tmax ([2]; male, beagle, […], 2.5 & […], Day 14, Male): 13.4 min | half-life ([2]; male, beagle, […], 2.5 & […], Day 14, Male, read-out: t1/2 (converted)): 49 min | Mortality and bodyweights (dogs; dose escalation phase, 2 to 5 mg/kg): no BPL-5MEO-related effects on mortality or bodyweights | Duration of convulsion in the male animal (dogs; last escalating dose 3.5 mg/kg/day): 8 min | MTD [3]: 2.5 mg/kg | Clinical sign in one animal (male Sprague-Dawley rats; 10 mg/kg): twitching | Resolution of clinical signs and FOB changes (male Sprague-Dawley rats; 1.5, 3, and 10 mg/kg): fully resolved within 1 or 2 hours following dosing | Clinical signs in some animals (male Sprague-Dawley rats; 3 and 10 mg/kg doses): Tremors, salivation, and gasping | FOB behavioral domain (male Sprague-Dawley rats; 15 minutes postdose, comparable to control at 1-hour postdose): transient decreased activity, lying on the cage floor, and decreased rearing | Clinical signs immediately following dosing (male Sprague-Dawley rats; all dose groups, transient): decreased activity, lying on the cage floor, shallow/increased respiration and dilated pupils | FOB neurological (sensorimotor)/neuromuscular domain (male Sprague-Dawley rats; all dose levels, comparable to control at 1-hour postdose): transient changes in gait (difficulty in movement) | FOB autonomic domain (male Sprague-Dawley rats; all dose levels, comparable with control at 2 hours postdose): salivation, piloerection, increased respiration, dilated pupils and changes in body temperature | NOAEL at 14 days [4]: 1.5 mg/kg/day | Effect on reproductive tissues (Beagle dogs; 14-day pivotal GLP intranasal toxicity study, dogs): no evidence of an adverse effect on reproductive tissues | Triglyceride (mmol/L), Mean ± SD Day 14 (Beagle dogs; Group 2, 0.4 mg/kg/day, Females): 0.46 ± 0.61 mmol/L | Triglyceride (mmol/L), Mean ± SD Day 14 (Beagle dogs; Group 2, 0.4 mg/kg/day, Males): 0.40 ± 0.11 mmol/L | Triglyceride (mmol/L), Mean ± SD Day 14 (Beagle dogs; Group 3, 0.8 mg/kg/day, Females): 0.47 ± 0.22 mmol/L | Triglyceride (mmol/L), Mean ± SD Day 14 (Beagle dogs; Group 3, 0.8 mg/kg/day, Males): 0.44 ± 0.07 mmol/L | Time to resolution of clinical signs (Beagle dogs; all treated groups): ≤ 90 min | Transient clinical observations (Beagle dogs; animals in all treated groups): incoordination, vocalization, mydriasis, decreased or increased activity, increased respiration, gnawing cage wire, excessive licking of nose or lips and circling

COc1ccc2[nH]cc(CCN(C)C)c2c1 [5MeODMT, 5-methoxy-N,N-dimethyltryptamine]
Tmax ([2]; both sexes, Beagle, dogs, 14-day intranasal study): 3 to 14 min | half-life ([2]; both sexes, Beagle, dogs, 14-day intranasal study, read-out: apparent elimination half-lives): 19 to 95 min | Cytotoxicity ([5]; E. coli strain, absence or presence of S9 mix): No cytotoxicity | Mutagenic potential (conclusion) ([5]; absence or presence of S9): no mutagenic potential
